Values after ≈ are worked out from the molar mass of the structure shown. Values belong to the compound of their own block, whether it stands above or below them.
How the values were obtained:
Experiment in all cases: ≥ marks a high value that may be exact or a test limit, other limits are often not marked, values filed in µg/mL are converted to µM
Escherichia coli K-12 = tested on: Escherichia coli K-12
[1] = tested on: Staphylococcus aureus JE2
Escherichia coli JJ2489 = tested on: Escherichia coli JJ2489
[2] = tested on: Escherichia coli JW0368 ΔsbmA
[3] = tested on: Salmonella enterica subsp. enterica serovar Enteritidis MH91989
[4] = tested on: Salmonella typhimurium SL1344
Escherichia coli BW25113 = tested on: Escherichia coli BW25113
Escherichia coli J2210 = tested on: Escherichia coli J2210
[5] = tested on: Escherichia coli JW2778 ΔygdD
Escherichia coli MC1041 = tested on: Escherichia coli MC1041
Escherichia coli JW0013 = tested on: Escherichia coli JW0013
[6] = tested on: Staphylococcus epidermidis ATCC 12228
[7] = tested on: Streptococcus pyogenes DMST 17020
[8] = tested on: Mannheimia haemolytica Serovar 6
[9] = tested on: Mannheimia haemolytica Serovar 1
Klebsiella pneumoniae = tested on: Klebsiella pneumoniae
[10] = tested on: Pseudomonas aeruginosa PAO1
[11] = tested on: Corynebacterium pseudotuberculosis ATCC 19410
Staphylococcus aureus = tested on: Staphylococcus aureus
[12] = tested on: Salmonella enterica subsp. arizonae
Pasteurella multocida = tested on: Pasteurella multocida
Bibersteinia trehalosi = tested on: Bibersteinia trehalosi
[13] = tested on: Candida parapsilosis CGMCC 2.3989
[14] = tested on: Lacticaseibacillus rhamnosus 7469
[15] = tested on: Staphylococcus aureus ATCC 29213
[16] = tested on: Staphylococcus aureus ATCC 25923
[17] = tested on: Lactiplantibacillus plantarum 8014
[18] = tested on: Candida albicans CGMCC 2.2086
[19] = tested on: Candida tropicalis CGMCC 2.1975
Enterobacter cloacae = tested on: Enterobacter cloacae
Escherichia coli BL21 = tested on: Escherichia coli BL21
[20] = tested on: Escherichia coli KpC+001812446
[21] = tested on: Escherichia coli ATCC 25922
[22] = tested on: Staphylococcus aureus ATCC 12600
Acinetobacter baumannii = tested on: Acinetobacter baumannii
[23] = tested on: Klebsiella pneumoniae KpC+001825971
Staphylococcus aureus MR = tested on: Staphylococcus aureus MR
[24] = tested on: Klebsiella pneumoniae ATCC 13883
[25] = tested on: Pseudomonas aeruginosa PA14

SMILES: CC[C@H](C)[C@H](NC(=O)[C@@H](NC(=O)[C@H](CO)NC(=O)[C@H](C)NC(=O)[C@@H](NC(=O)[C@H](CCCCN)NC(=O)[C@H](CCCCN)NC(=O)[C@@H](NC(=O)[C@@H](NC(=O)[C@H](CC(=O)O)NC(=O)[C@H](Cc1ccccc1)NC(=O)[C@H](CC(C)C)NC(=O)CNC(C)=O)C(C)C)[C@@H](C)CC)C(C)C)C(C)C)C(=O)NCC(=O)NCC(=O)N[C@@H](CC(C)C)C(=O)O [GLFDVIKKVASVIGGL]
MIC (Escherichia coli K-12): ≥ 158 µM | MIC [1]: ≥ 158 µM

SMILES: CC[C@H](C)[C@H](NC(=O)[C@H](CCCN=C(N)N)NC(=O)[C@@H](N)CCCN=C(N)N)C(=O)N[C@@H](CCCN=C(N)N)C(=O)N[C@@H](CCCCN)C(=O)N[C@@H](CCCN=C(N)N)C(=O)N1CCC[C@H]1C(=O)N1CCC[C@H]1C(=O)N[C@@H](CCCN=C(N)N)C(=O)N[C@@H](CC(C)C)C(=O)N1CCC[C@H]1C(=O)N[C@@H](CCCN=C(N)N)C(=O)N1CCC[C@H]1C(=O)N[C@@H](CCCN=C(N)N)C(=O)N1CCC[C@H]1C(=O)N[C@@H](CCCCN)C(=O)O [RRIRKRPPRLPRPRPK]
MIC (Escherichia coli JJ2489): 0.12 µM (≈ 0.25 µg/mL) | MIC [2]: 0.06 µM (≈ 0.125 µg/mL) | MIC [3]: 0.12 µM (≈ 0.25 µg/mL) | MIC [4]: 0.12 µM (≈ 0.25 µg/mL) | MIC (Escherichia coli BW25113): 0.078 µM (≈ 0.162 µg/mL) | MIC (Escherichia coli J2210): 0.157 µM (≈ 0.326 µg/mL) | MIC [5]: 0.12 µM (≈ 0.25 µg/mL) | MIC (Escherichia coli MC1041): 0.06 µM (≈ 0.125 µg/mL) | MIC (Escherichia coli JW0013): 0.06 µM (≈ 0.125 µg/mL)

SMILES: CC[C@H](C)[C@H](NC(=O)[C@H](CCCN=C(N)N)NC(=O)[C@@H](NC(=O)[C@@H](NC(=O)[C@H](CCCN=C(N)N)NC(=O)[C@H](CC(C)C)NC(=O)[C@@H](NC(=O)[C@@H](NC(=O)[C@@H]1CCCN1C(=O)CNC(=O)[C@H](Cc1ccc(O)cc1)NC(=O)[C@H](CCCCN)NC(=O)[C@H](CCCCN)NC(=O)[C@@H](NC(=O)[C@@H](NC(=O)[C@H](Cc1cnc[nH]1)NC(=O)[C@@H](NC(=O)[C@@H](NC(=O)[C@H](CCCCN)NC(=O)[C@H](CCCN=C(N)N)NC(=O)[C@@H](NC(=O)[C@@H](NC(=O)[C@H](CCCN=C(N)N)NC(=O)[C@H](CCCN=C(N)N)NC(=O)[C@H](CC(C)C)NC(=O)[C@H](CC(N)=O)NC(=O)[C@@H](N)CCCCN)[C@@H](C)CC)[C@@H](C)CC)[C@@H](C)CC)[C@@H](C)CC)[C@@H](C)CC)[C@@H](C)CC)[C@@H](C)O)[C@@H](C)CC)[C@@H](C)CC)[C@@H](C)CC)C(=O)N[C@H](C(=O)NCC(N)=O)[C@@H](C)CC [KNLRRIIRKIIHIIKKYGPTILRIIRIIG]
MIC [8]: 0.598 µM (≈ 2.1 µg/mL) | MIC [9]: 1.08 µM (≈ 3.8 µg/mL) | MIC (Klebsiella pneumoniae): 0.37 µM (≈ 1.3 µg/mL) | MIC [10]: 1.2 µM (≈ 4.2 µg/mL) | MIC [11]: 5.7 µM (≈ 20 µg/mL) | MIC (Staphylococcus aureus): 1.42 µM (≈ 5 µg/mL) | MIC [12]: 1.91 µM (≈ 6.7 µg/mL) | MIC (Pasteurella multocida): 2.37 µM (≈ 8.3 µg/mL) | MIC (Bibersteinia trehalosi): 2.85 µM (≈ 10 µg/mL)

SMILES: CC[C@H](C)[C@H](N)C(=O)N[C@@H](Cc1cnc[nH]1)C(=O)N[C@@H](Cc1cnc[nH]1)C(=O)N[C@H](C(=O)N[C@@H](Cc1cnc[nH]1)C(=O)N[C@@H](Cc1cnc[nH]1)C(=O)N[C@@H](Cc1cnc[nH]1)C(=O)N[C@H](C(=O)N[C@@H](Cc1cnc[nH]1)C(=O)N[C@@H](Cc1cnc[nH]1)C(=O)N[C@H](C(=O)N[C@@H](Cc1cnc[nH]1)C(=O)N[C@@H](Cc1cnc[nH]1)C(=O)N[C@@H](Cc1cnc[nH]1)C(=O)N[C@H](C(=O)N[C@@H](Cc1cnc[nH]1)C(=O)N[C@@H](Cc1cnc[nH]1)C(=O)N[C@H](C(=O)N[C@@H](Cc1cnc[nH]1)C(=O)N[C@@H](Cc1cnc[nH]1)C(=O)N[C@@H](Cc1cnc[nH]1)C(N)=O)[C@@H](C)CC)[C@@H](C)CC)[C@@H](C)CC)[C@@H](C)CC)[C@@H](C)CC [IHHIHHHIHHIHHHIHHIHHH]
MIC [6]: > 64 µM | MIC [13]: 1 µM (≈ 2.75 µg/mL) | MIC [14]: ≥ 64 µM | MIC [15]: > 64 µM | MIC [16]: > 64 µM | MIC [17]: ≥ 64 µM | MIC [18]: 1 µM (≈ 2.75 µg/mL) | MIC [19]: 0.5 µM (≈ 1.38 µg/mL)

SMILES: CC[C@H](C)[C@H](NC(=O)[C@H](CCCCN)NC(=O)[C@H](CCCCN)NC(=O)[C@@H](NC(=O)[C@H](CCCCN)NC(=O)[C@H](C)NC(=O)[C@H](C)NC(=O)[C@H](CC(C)C)NC(=O)[C@H](CCCN=C(N)N)NC(=O)[C@H](CCCCN)NC(=O)[C@H](CC(C)C)NC(=O)[C@@H](NC(=O)[C@@H](N)CCCCN)[C@@H](C)CC)[C@@H](C)CC)C(=O)N[C@@H](CC(C)C)C(N)=O [KILKRLAAKIKKIL]
MIC (Enterobacter cloacae): ≥ 32 µM | MIC (Escherichia coli BL21): 2 µM (≈ 3.27 µg/mL) | MIC [16]: > 32 µM | MIC [20]: 8 µM (≈ 13.1 µg/mL) | MIC [10]: 4 µM (≈ 6.54 µg/mL) | MIC [21]: 4 µM (≈ 6.54 µg/mL) | MIC [22]: 4 µM (≈ 6.54 µg/mL) | MIC (Acinetobacter baumannii): ≥ 32 µM | MIC [23]: ≥ 32 µM | MIC (Staphylococcus aureus MR): ≥ 32 µM | MIC [24]: 8 µM (≈ 13.1 µg/mL) | MIC [25]: 4 µM (≈ 6.54 µg/mL)

Results, then the compound that gave them:

MIC [6]: 250 µM (≈ 281 µg/mL) | MIC [7]: ≥ 250 µM
SMILES: CSCC[C@H](NC(=O)[C@H](CS)NC(=O)[C@H](CC(C)C)NC(=O)[C@@H](NC(=O)[C@@H](N)Cc1cnc[nH]1)[C@@H](C)O)C(=O)NCC(=O)N[C@@H](CCCCN)C(=O)N[C@@H](C)C(=O)N[C@H](C(=O)N[C@@H](Cc1ccc(O)cc1)C(=O)O)[C@@H](C)O [HTLCMGKATY]

MIC [7]: ≥ 50 µM
SMILES: CSCC[C@H](NC(=O)[C@H](CS)NC(=O)[C@H](CC(C)C)NC(=O)[C@@H](NC(=O)[C@@H](N)Cc1cnc[nH]1)[C@@H](C)O)C(=O)N[C@@H](CC(=O)O)C(=O)NCC(=O)NCC(=O)N[C@@H](C)C(=O)N[C@H](C(=O)N[C@@H](Cc1ccc(O)cc1)C(=O)O)[C@@H](C)O [HTLCMDGGATY]
